From patent publication EP3888661A1, “COMPOSITIONS COMPRISING 2 -FUCOSYLLACTOSE TO PREVENT VIRAL INFECTIONS” (FrieslandCampina Nederland B.V., priority 2020, dated 2021)

Experiments:
[1] = tested on: anaerobic microbiota from human origin; assay: TIM-2 in vitro fermentation model of the human colon, SCFA/acetate production
Excerpt: The in vitro fermentation studies were done using the TIM-2 model. This is a validated, dynamic, computer-controlled model that simulates the human colon, mimicking body temperature, lumen pH, absorption of water and microbial metabolites through a semipermeable membrane inside the model, mixing and transporting the intestinal contents with peristaltic movements, using an anaerobic microbiota from human origin, it corresponds basically to the model as described in Minekus, M., etal. Appl. Microbiol. Biotechnol. 1999 53, 108-114. doi: 10.1007/ s002530051622 and Kortman et al., Frontiers in Microbiology 2016, 6, 1481. Characteristics of the movements of the contents in the TIM-2 system was simulated using an increase of the pH and peristaltic movements of the contents in the system using peristaltic pumps as described in Minekus, M (1998. Development and validation of a dynamic model of the gastrointestinal tract. PhD thesis, Delft University of Technology, The Netherlands).
SCFA analysis was performed at Brightlabs B.V., Venlo, The Netherlands), according to (Sáyago-Ayerdi SG, et al. Food Research International, E-pub date 13 December 2017; Sayago Ayerdi et al Food Research International 118 (2019) 89-95). […]
Samples (1 mL) were taken for Short Chain Fatty Acid (SCFA) analysis after 1, 2, 4, 6, 8 and 24 h after test product insertion; cumulative absolute amounts of SCFA were determined. […]

[2] = cited from earlier work

C[C@@H]1O[C@@H](O[C@H]2[C@H](O[C@H]3[C@H](O)[C@@H](O)C(O)O[C@@H]3CO)O[C@H](CO)[C@H](O)[C@@H]2O)[C@@H](O)[C@H](O)[C@@H]1O (stereo partly drawn) [2'-FL, 2'-Fucosyllactose]
acetate production ([1]; 7.5 gram test product as single shot, cumulative acetate produced between 8 and 24 hours after insertion, representing the distal colon, pooled fecal microbiota of 20 healthy subjects): 17 mmol | acetate production ([1]; fecal microbiota samples of lean and of obese subjects in the TIM-2 model system): An increase in the acetate production was observed | daily dosage tested as safe [2]: 20 g
